test system: RSV A2; assay: Screening for RSV inhibition using Viral ToxGlo assay (cytopathic effect inhibition in HEp-2 cells); assay type: cell-based, Respiratory Syncytial Virus (RSV); settings: RSV A2 in HEp-2 cells, MOI 0.5, 72h p.i., cytopathic effect inhibition relative to virus control, Viral ToxGlo luminescence
Outline: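 HEp-2 cells in 2% FBS medium infected with RSV A2 right after compound addition (max 1% DMSO), uninfected wells used for cytotoxicity. After 72 h p.i. at 37 °C/5% CO2, cell viability read by Viral ToxGlo luminescence as measure of cytopathic effect.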

Compound	EC50 [µM]
O=C(N=C1NCCN1)c1cc(F)c(Nc2cccc(C3=NCCN3)c2)c(C2CC2)c1 [Compound 169, 3-cyclopropyl-4-{[3-(4,5-dihydro-1H-imidazol-2-yl)phenyl]amino}-5-fluoro-N-(imidazolidin-2-ylidene)benzamide]	0.0136

same assay, conditions: human respiratory syncytial virus; RSV A2 in HEp-2 cells, MOI 0.5, 72h p.i., cytopathic effect inhibition relative to virus control, Viral ToxGlo luminescence

Compound	EC50 [µM]
CC1(NC(=O)c2cccc(Nc3c(F)cc(C(=O)N=C4NCCN4)cc3C3CC3)c2F)CC1 [Compound 143, 3-cyclopropyl-5-fluoro-4-({2-fluoro-3-[(1-methylcyclopropyl)carbamoyl]phenyl}amino)-N-[imidazolidin-2-ylidene]benzamide]	0.0597
O=C(N=C1NCCN1)c1cc(F)c(Nc2cccc(C(=O)N3CCOC(C(F)(F)F)C3)c2)c(C2CC2)c1 (stereo not shown) [Compound 144, 3-cyclopropyl-5-fluoro-N-[imidazolidin-2-ylidene]-4-({3-[2-(trifluoromethyl)morpholine-4-carbonyl]phenyl}amino)benzamide]	0.0481
O=C(N=C1NCCN1)c1cc(F)c(Nc2cccc(C(=O)N3CCOCC3)c2)c(C2CCCO2)c1 (stereo not shown) [Compound 145, 3-fluoro-N-[imidazolidin-2-ylidene]-4-{[3-(morpholine-4-carbonyl)phenyl]amino}-5-(oxolan-2-yl)benzamide]	0.475
CC1(NC(=O)c2cccc(Nc3ncc(C(=O)N=C4NCCN4)cc3C3CC3)c2Cl)CC1 [Compound 146, 6-({2-chloro-3-[(1-methylcyclopropyl)carbamoyl]phenyl}amino)-5-cyclopropyl-N-[imidazolidin-2-ylidene]pyridine-3-carboxamide]	0.253
CC1(NC(=O)c2ccnc(Nc3c(F)cc(C(=O)N=C4NCCN4)cc3C3CC3)c2F)CC1 [Compound 147, 2-[(2-cyclopropyl-6-fluoro-4-{[imidazolidin-2-ylidene]carbamoyl}phenyl)amino]-3-fluoro-N-(1-methylcyclopropyl)pyridine-4-carboxamide]	0.0994
CC(C)NC(=O)c1cc(F)cc(Nc2ccc(C(=O)N=C3NCCN3)cc2C2CC2)c1C1CC1 [Compound 148, 2-cyclopropyl-3-[(2-cyclopropyl-4-{[imidazolidin-2-ylidene]carbamoyl}phenyl)amino]-5-fluoro-N-(propan-2-yl)benzamide]	0.347
CC1(NC(=O)c2cccc(Nc3c(C#N)cc(C(=O)N=C4NCCN4)cc3C3CC3)c2)CC1 [Compound 149, 3-cyano-5-cyclopropyl-N-[imidazolidin-2-ylidene]-4-({3-[(1-methylcyclopropyl)carbamoyl]phenyl}amino)benzamide]	0.0458
CC1(NC(=O)c2nccc(Nc3ccc(C(=O)N=C4NCCN4)cc3C3CC3)c2Cl)CC1 [Compound 150, 3-chloro-4-[(2-cyclopropyl-4-{[imidazolidin-2-ylidene]carbamoyl}phenyl)amino]-N-(1-methylcyclopropyl)pyridine-2-carboxamide]	0.263
N#CC1(NC(=O)c2ccnc(Nc3c(F)cc(C(=O)N=C4NCCN4)cc3C3CC3)c2F)CC1 [Compound 152, N-(1-cyanocyclopropyl)-2-[(2-cyclopropyl-6-fluoro-4-{[imidazolidin-2-ylidene]carbamoyl}phenyl)amino]-3-fluoropyridine-4-carboxamide]	1.14
O=C(N=C1NCCN1)c1cc(F)c(Nc2nccc(C(=O)N3CCOCC3)c2Cl)c(C2CC2)c1 [Compound 153, 4-{[3-chloro-4-(morpholine-4-carbonyl)pyridin-2-yl]amino}-3-cyclopropyl-5-fluoro-N-[imidazolidin-2-ylidene]benzamide]	0.0316
O=C(N=C1NCCN1)c1cc(F)c(Nc2nccc(C(=O)N3C[C@H]4C[C@@H]3CO4)c2Cl)c(C2CC2)c1 [Compound 154, 4-({3-chloro-4-[(1R,4R)-2-oxa-5-azabicyclo[2.2.1]heptane-5-carbonyl]pyridin-2-yl}amino)-3-cyclopropyl-5-fluoro-N-[imidazolidin-2-ylidene]benzamide]	0.0698
O=C(N=C1NCCN1)c1cc(F)c(Nc2nccc(C(=O)N3C[C@@H]4C[C@H]3CO4)c2Cl)c(C2CC2)c1 [Compound 155, 4-({3-chloro-4-[(1S,4S)-2-oxa-5-azabicyclo[2.2.1]heptane-5-carbonyl]pyridin-2-yl}amino)-3-cyclopropyl-5-fluoro-N-[imidazolidin-2-ylidene]benzamide]	0.0518
O=C(N=C1NCCN1)c1cc(F)c(Nc2nccc(C(=O)N3CCOCC3)c2F)c(C2CC2)c1 [Compound 156, 3-cyclopropyl-5-fluoro-4-{[3-fluoro-4-(morpholine-4-carbonyl)pyridin-2-yl]amino}-N-[imidazolidin-2-ylidene]benzamide]	0.0407
CC1(NC(=O)c2nccc(Nc3c(F)cc(C(=O)N=C4NCCN4)cc3C3CC3)c2Cl)CC1 [Compound 157, 3-chloro-4-[(2-cyclopropyl-6-fluoro-4-{[imidazolidin-2-ylidene]carbamoyl}phenyl)amino]-N-(1-methylcyclopropyl)pyridine-2-carboxamide]	0.0266
O=C(N=C1NCCN1)c1cc(F)c(Nc2cccc(C(=O)N3CCOCC3)c2F)c(C2CC2)c1 [Compound 158, 3-cyclopropyl-5-fluoro-4-{[2-fluoro-3-(morpholine-4-carbonyl)phenyl]amino}-N—[imidazolidin-2-ylidene]benzamide]	0.0068
O=C(N=C1NCCN1)c1cc(F)c(Nc2nccc(C(=O)N3C[C@@H]4C[C@H]3CO4)c2F)c(C2CC2)c1 [Compound 159, 3-cyclopropyl-5-fluoro-4-({3-fluoro-4-[(1S,4S)-2-oxa-5-azabicyclo[2.2.1]heptane-5-carbonyl]pyridin-2-yl}amino)-N—[imidazolidin-2-ylidene]benzamide]	0.225
CC(C)=CCn1nnc(-c2cccc(Nc3ccc(C(=O)/N=C4\NCCN4C)cc3C3CC3)c2)n1 [Compound 160, 3-cyclopropyl-4-({3-[2-(3-methylbut-2-en-1-yl)-2H-1,2,3,4-tetrazol-5-yl]phenyl}amino)-N-[1-methylimidazolidin-2-ylidene]benzamide]	0.545
CC1(C(=O)Nc2cccc(Nc3ccc(C(=O)N=C4NCCN4)cc3C3CC3)c2)COC1 [Compound 161, N-{3-[(2-cyclopropyl-4-{[imidazolidin-2-ylidene]carbamoyl}phenyl)amino]phenyl}-3-methyloxetane-3-carboxamide]	0.69
CC1(C(=O)Nc2cccc(Nc3c(F)cc(C(=O)N=C4NCCN4)cc3C3CC3)c2)COC1 [Compound 163, N-{3-[(2-cyclopropyl-6-fluoro-4-{[imidazolidin-2-ylidene]carbamoyl}phenyl)amino]phenyl}-3-methyloxetane-3-carboxamide]	0.035
O=C(N=C1NCCN1)c1cc(F)c(Nc2nccc(C(=O)NC34CC(C3)C4)c2Cl)c(C2CC2)c1 [Compound 164]	0.0038
CC1(NC(=O)c2cccc(Nc3ccc(C(=O)N=C4NCCN4)cc3C3CC3)c2Cl)CC1 [Compound 167, 4-({2-chloro-3-[(1-methylcyclopropyl)carbamoyl]phenyl}amino)-3-cyclopropyl-N-[imidazolidin-2-ylidene]benzamide]	0.0178
